Consider one compound from ChEMBL document CHEMBL1150638, “An unusual sesquiterpene derivative from Ferula kuhistanica” (J Nat Prod, 2002).

Structures are written as SMILES. Calls of active or inactive are those of the source. The rule behind the calls is not given here.

The subject of experiment [1] is Staphylococcus aureus. Briefly: Antibacterial activity against methicillin-resistant Staphylococcus aureus. Format: functional, organism-based.
The test system of experiment [2] is Staphylococcus aureus. The experiment in a line: Antibacterial activity against methicillin-sensitive Staphylococcus aureus. The class given is functional, organism-based.
Another experiment has as its system HCT-116. The experiment in a line: Cytotoxicity against human HCT116 cells after 2 days by MTT assay. Format: functional, cell-based. The following applies: HCT-116, 48 h. (Formazan colour is commonly taken as a measure of viable cells.)

The IC50 is the point on the concentration scale where inhibition reaches its midpoint. Low readings indicate greater potency, high ones weaker potency.

Turning to `CC(=O)CC[C@@]1(C)CC[C@]2(C(C)C)O[C@@H](O)[C@H](OC(=O)c3ccc(O)cc3)[C@H]12` [KUHISTAFERONE], the outcome in the experiment on Staphylococcus aureus [1] and with Staphylococcus aureus [2] was inactive. Besides, the midpoint of inhibition in the experiment on HCT-116, the IC50, lay at 181 µM.
